Source: US20240041042A1, “1-(PYRIDYL)-5-AZINYLPYRAZOLE DERIVATIVES, AND THEIR USE FOR CONTROL OF UNDESIRED PLANT GROWTH” (Bayer Aktiengesellschaft, priority 2020, published 2024)
Read-outs that look alike come from different tables or passages of the source.

Tests used:
Type in all cases: in vivo
[1] = tested on: Verconica persica (VERPE); experiment: Pre-emergence herbicidal action against VERPE; settings: dosage 320 g/ha
How it was run: (§1)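 Herbicide applied to soil before seedling emergence, at 600 l/ha spray volume with 0.5% additive and rates up to 320 g/ha. Evaluation: visual percentage effect, about 3 weeks later, greenhouse-grown pots compared with untreated ones.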

Viola tricolor (VIOTR) [2] = experiment: Pre-emergence herbicidal action against VIOTR; settings: 320 g/ha, Viola tricolor
How it was run: as §1

Brassica napus (BRSNW) = settings: crop plant compatibility, in comparison to untreated controls
How it was run: (§2)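 Scoring: visual, % of untreated control, about 3 weeks after a pre-emergence application to the soil surface. Application used WP or EC formulations diluted in water with 0.5% additive at 600 l/ha; dosage levels are marked by suffixes a, b and c.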

Glycine max (GLXMA) [3] = settings: pre-emergence, crop plant compatibility, in comparison to untreated controls
How it was run: as §2

Oryza sativa (ORYSA) [4] = settings: pre-emergence, crop plant compatibility, in comparison to untreated controls
How it was run: as §2

[5] = tested on: Triticum aestivum (TRZAS); settings: pre-emergence, crop plant compatibility, in comparison to untreated controls
How it was run: as §2

Zea mays (ZEAMX) [6] = settings: pre-emergence, crop plant compatibility, in comparison to untreated controls
How it was run: as §2

[7] = tested on: Verconica persica (VERPE); experiment: Post-emergence herbicidal action against VERPE; settings: 320 g/ha, VERPE
How it was run: (§3)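 Rates were 320 g/ha or below, applied as aqueous WP/EC spray with 0.5% additive (600 l/ha) onto one-leaf-stage plants. About 3 weeks later in the greenhouse, damage was scored visually against untreated plants on a 0–100% scale, where 100% means plants died.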

Viola tricolor (VIOTR) [8] = experiment: Post-emergence herbicidal action against VIOTR; settings: 320 g/ha
How it was run: as §3

Oryza sativa (ORYSA) [9] = settings: crop plant compatibility, effect in comparison to untreated controls
How it was run: (§4)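 Foliar application at the one-leaf stage: WP/EC formulation, 0.5% additive, 600 l/ha water. Greenhouse-grown in sandy loam. Endpoint is visual % injury relative to untreated controls at about 3 weeks.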

[10] = tested on: Triticum aestivum (TRZAS); settings: crop plant compatibility, effect vs untreated controls
How it was run: as §4

Zea mays (ZEAMX) [11] = settings: crop plant compatibility, effect vs untreated controls
How it was run: as §4

Glycine max (GLXMA) [12] = experiment: Post-emergence crop plant compatibility, GLXMA; settings: for Post-emergence action against GLXMA in %: 80 g/ha, effect in comparison to untreated controls
Description: Seeds of monocotyledonous and dicotyledonous weeds and crop plants are placed in sandy loam in plastic or organic planting pots, covered with soil and cultivated in a greenhouse under controlled growth conditions. 2 to 3 weeks after sowing, the test plants are treated at the one-leaf stage. The compounds of the invention, formulated in the form of wettable powders (WP) or as emulsion concentrates (EC), are then sprayed onto the green parts of the plants as aqueous suspension or emulsion with addition of 0.5% additive at a water application rate of 600 l/ha (converted). After the test plants have been kept in the greenhouse under optimum growth conditions for about 3 weeks, the activity of the preparations is rated visually in comparison to untreated controls. For example, 100% activity=the plants have died, 0% activity=like control plants.
The observed effects on selected crop plants are reported here in comparison to the untreated controls (values in %). The appendices “a”, “b” and “c” give differentiation by dosage used with otherwise the same crop plants tested.

[13] = tested on: Amaranthus retroflexus (AMARE); experiment: Pre-emergence herbicidal action against AMARE; settings: 320 g/ha, visual scoring after about 3 weeks vs untreated controls
How it was run: as §1

Avena fatua (AVEFA) = experiment: Pre-emergence herbicidal action against AVEFA; settings: 320 g/ha, visual scoring after about 3 weeks vs untreated controls
How it was run: as §1

[14] = tested on: Polygonum convolvulus (POLCO); experiment: Pre-emergence herbicidal action against POLCO; settings: dosage 320 g/ha
How it was run: as §1

[15] = tested on: Amaranthus retroflexus (AMARE); experiment: Post-emergence herbicidal action against AMARE; settings: 320 g/ha, visual rating about 3 weeks after treatment
How it was run: as §3

[16] = tested on: Pharbitis purpurea (PHBPU); experiment: Post-emergence herbicidal action against PHBPU; settings: dosage 320 g/ha
How it was run: as §3

[17] = tested on: Polygonum convolvulus (POLCO); experiment: Post-emergence herbicidal action against POLCO; settings: dosage 320 g/ha
How it was run: as §3

Pre-emergence action against BRSNW in % (Brassica napus (BRSNW); 80 g/ha) [%]	Pre-emergence action against GLXMA in % (Glycine max (GLXMA) [3]; 80 g/ha) [%]	Pre-emergence action against TRZAS in % ([5]; 80 g/ha) [%]	Pre-emergence action against TRZAS in % ([5]; 320 g/ha) [%]	Pre-emergence action against ZEAMX in % (Zea mays (ZEAMX) [6]; 80 g/ha) [%]	Post-emergence action against ORYSA in % (Oryza sativa (ORYSA) [9]; 80 g/ha) [%]	Post-emergence action against ORYSA in % (Oryza sativa (ORYSA) [9]; 320 g/ha) [%]	Post-emergence action against TRZAS in % ([10]; 80 g/ha) [%]	Post-emergence action against TRZAS in % ([10]; 320 g/ha) [%]	Post-emergence action against ZEAMX in % (Zea mays (ZEAMX) [11]; 80 g/ha) [%]	Post-emergence action against ZEAMX in % (Zea mays (ZEAMX) [11]; 320 g/ha) [%]	Post-emergence action against GLXMA in % (Glycine max (GLXMA) [12]) [%]	SMILES	Pre-emergence action against VIOTR in % (Viola tricolor (VIOTR) [2]) [%]	Post-emergence action against VIOTR in % (Viola tricolor (VIOTR) [8]) [%]	other results
10	0	0	20	20	0	0	0	10	10	10	0	CCOC(=O)COc1nn(-c2ccc(Br)c(C)n2)c(-c2cncc(F)c2)c1Br [Example I-161]	90	80	Pre-emergence action against VERPE in % [1]: 80%; Pre-emergence action against BRSNW in % (Brassica napus (BRSNW); 320 g/ha): 10%; Pre-emergence action against ORYSA in % (Oryza sativa (ORYSA) [4]; 80 g/ha): 0%; Pre-emergence action against ORYSA in % (Oryza sativa (ORYSA) [4]; 320 g/ha): 0%; Pre-emergence action against ZEAMX in % (Zea mays (ZEAMX) [6]; 320 g/ha): 20%; Post-emergence action against VERPE in % [7]: 80%
0	0	0	20	0	0	0	0	20	0	20	0	CCOC(=O)COc1nn(-c2ccccn2)c(-c2cncc(F)c2)c1Cl [Example I-147]	90	90	Pre-emergence action against AMARE in % [13]: 90%; Pre-emergence action against AVEFA in % (Avena fatua (AVEFA)): 80%; Pre-emergence action against POLCO in % [14]: 90%; Pre-emergence action against GLXMA in % (Glycine max (GLXMA) [3]; 320 g/ha): 0%; Post-emergence action against AMARE in % [15]: 90%; Post-emergence action against PHBPU in % [16]: 90%; Post-emergence action against POLCO in % [17]: 90%; Post-emergence action against GLXMA (Glycine max (GLXMA) [12]; 320 g/ha, effect vs untreated controls): 10%
